Reference: ChEMBL document CHEMBL1649348, “Antifungal cyclic peptides from Psammosilene tunicoides” (2010)
≈ marks a conversion by molar mass, not a printed value. Peptide text beside a SMILES is read from it.

Legend:
Type in all cases: functional
Candida tropicalis = assay: Antifungal activity against Candida tropicalis after 24 hrs to 1 week by two fold dilution method
Cryptococcus neoformans = assay: Antifungal activity against Cryptococcus neoformans BLS108 after 24 hrs to 1 week by two fold dilution method
Candida albicans [1] = assay: Antifungal activity against Candida albicans SC5314 after 24 hrs to 1 week by two fold dilution method
Candida albicans [2] = assay: Antifungal activity against Candida albicans Y0109 after 24 hrs to 1 week by two fold dilution method
Candida parapsilosis = assay: Antifungal activity against Candida parapsilosis after 24 hrs to 1 week by two fold dilution method; conditions: Lodderomyces parapsilosis

MIC80 (Candida tropicalis): 0.25 µg/mL (≈ 0.277 µM) | MIC80 (Cryptococcus neoformans): 1 µg/mL (≈ 1.11 µM) | MIC80 (Candida albicans [1]): 4 µg/mL (≈ 4.44 µM) | MIC80 (Candida albicans [2]): 16 µg/mL (≈ 17.8 µM) | MIC80 (Candida parapsilosis): 1 µg/mL (≈ 1.11 µM)
Structure (SMILES): CC[C@H](C)[C@@H]1NC(=O)[C@H](CC(N)=O)NC(=O)[C@H](C(C)C)NC(=O)CNC(=O)[C@H](Cc2c[nH]cn2)NC(=O)[C@H](Cc2c[nH]c3ccccc23)NC(=O)[C@@H]2CCCN2C(=O)[C@@H]2CCCN2C1=O [TUNICYCLIN D] (cyclo(GVNIPPWH))
